Results taken from patent US8623885B2, “Fused tricyclic dual inhibitors of CDK 4/6 and FLT3” (Amgen Inc., priority 2011, dated 2014).
Entries after “also recorded” stand apart in the source; their conditions may differ.

What was measured:
neointima formation = conditions: animal models; cited from earlier work
[1] = biological target: FLT3 enzyme (GST-FLT3 fusion) (Homo sapiens (Human), UniProt P36888); assay: FLT3 HTRF kinase assay; format: biochemical; conditions: 116 μM ATP
Protocol: The FLT3 inhibitory activity of the CDK4/6-FLT3 inhibitors was determined with a HTRF kinase assay. The FLT3 enzyme (GST-FLT3 fusion) was purchased from Carna Biosciences. An ULight-labeled synthetic peptide derived from human Janus kinase 1 (aa1015-1027, ULight-JAK1, PerkinElmer) was utilized as the phosphoacceptor substrate. The assay was conducted in a 384-well white OptiPlate (PerkinElmer). The 20 μL reaction mixture contained 50 nM ULight-JAK1, 116 μM ATP, 0.0385 ng/μL FLT3 and dilutions of test compounds in the kinase buffer (50 mM Hepes, pH 7.6, 1 mM EGTA, 10 mM MgCl2, 2 mM DTT, and 0.005% Tween 20). The reaction was allowed to proceed for 1 hour at room temperature and was stopped by adding 20 μL of 10 mM EDTA, 2 nM LANCE® Eu-W1024 anti-phospho-tyrosine antibody in LANCE® detection buffer (PerkinElmer). The plates were incubated at room temperature for 2 hours after addition of detection reagents and then read on an Envision multimode reader (PerkinElmer).
(§1) IC50 values of the compounds in the above assays were determined by non-linear regression analysis using Prism (GraphPad Software).

[2] = tested on: Colo205 human colon carcinoma xenograft tumors; assay: Tumor growth inhibition in Colo205 xenograft tumors; format: in vivo, CrTac:NCR-Foxn1nu nude mice
Protocol: The activity of Example 5 was evaluated in the human colon carcinoma, Colo205, xenograft tumor model. This cell line expresses CDK4/6 but not FLT3. Therefore, this system will measure the activity of Example 5 against CDK4/6. Colo205 cells (obtained from American Type Culture Collection, Manassas, Va., USA) were cultured in DMEM cell growth medium containing 10% fetal bovine serum (commercially obtained from Invitrogen, Carlsbad, Calif. USA). Two million cells were innoculated on the right flank of CrTac:NCR-Foxn1^nu nude mice (commercially available from Taconic Farms, Inc, Hudson, N.Y. USA) and allowed to grow for 13 days. Mice were then distributed into groups of 10 mice based on ranking of initial tumor volume to achieve groups in which the average tumor size was 170 mm^3 Example 5 was formulated in 2% HPMC (Hypermellose; HY122-13; commercially available from Spectrum Chemical Manufacturing Gardena, Calif. USA)/1% Tween-80 (Crillet 4 HP; commercially available from Croda, Inc Edison, N.J. USA) and dosed daily or twice daily 6 hours apart for a total of 10 days with 12.5 mg/kg, 25 mg/kg, 37.5 mg/kg, or 50 mg/kg. Tumors were measured every other day using two-dimensional calipers and tumor volumes were estimated using the equation Width^2×Length×0.5. […] Statistical significance was evaluated using RMANOVA on log transformed tumor volume with baseline as covariate.

MOLM13 cells = assay: [14C]-thymidine incorporation cell proliferation assay, MOLM13; format: cell-based, human; conditions: Homo sapiens, MOLM-13, 72 hour incubation
Protocol: The cell proliferation inhibition potency of the CDK4/6-FLT3 inhibitors was determined by using a [^14C]-thymidine incorporation assay. Exponentially growing cells (MOLM-13, Colo-205, etc.) were seeded in a 96-well Cytostar T plate (GE Healthcare Biosciences) at a density of 5×10^3 cells/well and incubated overnight. Serially diluted compounds and 0.1 μCi of [^14C]-thymidine (GE Healthcare Biosciences) were added to each well on the following day. After 72 hour incubation, isotope incorporation was determined with a β plate counter (Wallac). MOLM13 is a human AML tumor cell line expressing FLT3, FLT3^ITD and wild type Rb.
as §1

[3] = tested on: MOLM13 subcutaneous xenograft tumors; assay: Tumor growth inhibition in AML MOLM13 xenograft tumors; format: in vivo, CrTac:NCR-Foxn1nu nude mice
Protocol: The AML cell line, MOLM13, (obtained from American Type Culture Collection, Manassas, Va., USA) was cultured in RPMI-1640 cell growth medium containing 10% fetal bovine serum (commercially obtained from Invitrogen, Carlsbad, Calif. USA). This cell line expresses CDK4/6, one copy of wild type FLT3 kinase and one copy of FLT3-ITD, which results in constitutive activation of FLT3 activity. Therefore, the activity of Example 5 against both FLT3 and CDK4/6 can be tested in this tumor cell. Tumor cells (7.5 million) were injected subcutaneously onto the right flank of CrTac:NCR-Foxn1^nu nude mice (commercially available from Taconic Farms, Inc, Hudson, N.Y. USA). Tumors were allowed to grow for 6 days. […] Tumors were measured every other day using two-dimensional calipers and tumor volumes were estimated using the equation Width^2×Length×0.5. […] Statistical significance was evaluated using RMANOVA on log transformed tumor volume with baseline as covariate.

CDK4/Cyclin D1 = CDK4/Cyclin D1 (Homo sapiens (Human), UniProt P11802); assay: CDK4 filtration kinase assay; format: biochemical; conditions: CDK4/Cyclin D1, Rb fragment substrate, [33P]-ATP filtration assay
Sequence of CDK4/Cyclin D1 (P11802 whole entry, the tested form may be a part): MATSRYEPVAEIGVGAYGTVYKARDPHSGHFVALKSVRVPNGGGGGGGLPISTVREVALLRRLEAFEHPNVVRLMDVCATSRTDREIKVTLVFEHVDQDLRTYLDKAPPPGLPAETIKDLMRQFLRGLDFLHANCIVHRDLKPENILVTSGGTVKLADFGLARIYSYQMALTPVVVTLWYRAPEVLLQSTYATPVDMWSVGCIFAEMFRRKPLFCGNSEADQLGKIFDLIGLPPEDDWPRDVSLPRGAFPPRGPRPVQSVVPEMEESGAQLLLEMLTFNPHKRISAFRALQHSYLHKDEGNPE
Sequence of CDK4/Cyclin D1 (P24385 whole entry partner, the tested form may be a part): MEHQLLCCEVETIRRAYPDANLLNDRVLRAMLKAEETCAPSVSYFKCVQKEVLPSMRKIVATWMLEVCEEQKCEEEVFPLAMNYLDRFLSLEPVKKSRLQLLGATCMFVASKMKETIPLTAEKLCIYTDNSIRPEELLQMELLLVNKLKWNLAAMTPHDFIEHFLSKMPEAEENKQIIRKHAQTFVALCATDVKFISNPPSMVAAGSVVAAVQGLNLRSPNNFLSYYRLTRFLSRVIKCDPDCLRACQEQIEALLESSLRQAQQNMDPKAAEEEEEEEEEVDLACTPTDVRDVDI
Protocol: The CDK4 and CDK1 inhibitory activity of the CDK4/6-FLT3 inhibitors was determined with a filtration kinase assay. The compounds, kinase and substrate diluted in the kinase buffer (20 mM Tris, pH7.4, 50 mM NaCl, 1 mM DTT, 0.1% BSA) were sequentially added to a 96-well Multiscreen HTS filtration plate (Millipore). The final 100 μL reaction mixture in each well contained 0.3 μg of CDK4/Cyclin D1 or CDK1/Cyclin B (Cell Signaling Technology), 1 μg of Rb fragment (aa773-928, Millipore) for the CDK4 assay or 5 μg of histone H1 for the CDK1 assay and 1 μCi of [^33P]-ATP. The mixture was incubated at room temperature for 1 hour. The proteins in the reaction were then precipitated and washed with cold TCA solution using an aspiration/filtration vacuum system. The plates were dried at room temperature, and the retained radioactivity was measured by scintillation counting.
as §1

Sequence of FLT3 enzyme (GST-FLT3 fusion) (P36888 27-993): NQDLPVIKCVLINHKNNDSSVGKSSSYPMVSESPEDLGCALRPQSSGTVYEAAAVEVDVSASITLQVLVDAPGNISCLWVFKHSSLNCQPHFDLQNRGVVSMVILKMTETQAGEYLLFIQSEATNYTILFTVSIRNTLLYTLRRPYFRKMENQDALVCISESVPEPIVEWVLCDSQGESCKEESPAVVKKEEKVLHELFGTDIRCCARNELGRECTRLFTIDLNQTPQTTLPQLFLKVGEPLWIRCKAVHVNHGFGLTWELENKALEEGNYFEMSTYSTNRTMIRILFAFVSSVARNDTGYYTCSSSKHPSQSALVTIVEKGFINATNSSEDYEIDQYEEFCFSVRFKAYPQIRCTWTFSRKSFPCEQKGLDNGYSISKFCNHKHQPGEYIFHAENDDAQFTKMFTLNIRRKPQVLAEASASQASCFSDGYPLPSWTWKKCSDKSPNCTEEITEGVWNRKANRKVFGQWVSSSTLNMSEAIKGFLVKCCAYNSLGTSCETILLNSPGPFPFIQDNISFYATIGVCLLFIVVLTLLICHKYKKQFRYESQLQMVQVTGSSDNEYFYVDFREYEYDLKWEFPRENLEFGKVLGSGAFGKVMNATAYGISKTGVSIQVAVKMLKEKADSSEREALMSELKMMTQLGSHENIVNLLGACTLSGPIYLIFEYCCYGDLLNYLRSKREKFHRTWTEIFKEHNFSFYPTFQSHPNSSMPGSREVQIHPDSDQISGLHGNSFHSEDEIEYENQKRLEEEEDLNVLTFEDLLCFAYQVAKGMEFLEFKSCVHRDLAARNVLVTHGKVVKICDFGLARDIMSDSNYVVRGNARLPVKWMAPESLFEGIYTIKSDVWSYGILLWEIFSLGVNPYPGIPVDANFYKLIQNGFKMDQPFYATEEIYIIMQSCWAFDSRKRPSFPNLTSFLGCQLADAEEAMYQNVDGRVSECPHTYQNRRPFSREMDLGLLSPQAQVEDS

| Compound | inhibition of neointima formation (neointima formation) | IC50 [1] [nM] | inhibition of tumor growth (tumor volume) ([2]; 12.5-50 mg/kg, twice daily (BID), 10 days) | tumor volume versus vehicle treated group (RMANOVA) ([2]; all doses) | IC50 (MOLM13 cells) [nM] | inhibition of tumor growth (tumor volume) ([3]; 6.25-150 mg/kg, twice daily (BID), 10 days) | tumor volume versus vehicle treated group (RMANOVA) ([3]; all doses) | IC50 (CDK4/Cyclin D1) [nM] |
| --- | --- | --- | --- | --- | --- | --- | --- | --- |
| COc1ccc(CNc2nc(N(CCO)CCO)nc3c2ncn3C(C)C)cc1 [CVT-313] | significant inhibition of neointima formation |  |  |  |  |  |  |  |
| C[C@H]1CC[C@H](n2c3cnccc3c3cnc(Nc4ccc5c(n4)CCN(C(=O)CO)C5)nc32)CC1 [Example 5, 2-hydroxy-1-(2-((9-((1r,4r)-4-methylcyclohexyl)-9H-pyrido[4′,3′:4,5]pyrrolo[2,3-d]pyrimidin-2-yl)amino)-7,8-dihydro-1,6-naphthyridin-6(5H)-yl)ethanone] |  | 1.5 | dose dependent anti-tumor activity; also recorded: Dose-dependent inhibition of tumor growth | statistically different from the vehicle treated group | 19 | dose dependent anti-tumor activity; also recorded: Dose-dependent inhibition of tumor growth | statistically different from the vehicle treated group | 2.4 |
